Measured values taken from publication PMC3130785, “Small Compound 6-O-Angeloylplenolin Induces Mitotic Arrest and Exhibits Therapeutic Potentials in Multiple Myeloma” (PLoS ONE, 2011).

What was measured:
pERK1/2 = assay: Western blotting, 6-OAP/BOR; assay type: cell-based, human; conditions: MM.1S; BOR 3 nM for 12 to 24 h with 6-OAP 5 µM
Procedure: Cell pellets were lysed in RIPA buffer containing 50 mM Tris pH 8.0, 150 mM NaCl, 0.1% SDS, 0.5% deoxycholate, 1% NP-40, 1 mM DTT, 1 mM NaF, 1 mM sodium vanadate, and protease inhibitors cocktail (Sigma). For immunoprecipitations, cells were lysed on ice for 15 minutes in RIPA buffer. Lysates were centrifuged. The supernatant was incubated with indicated antibodies overnight, after which protein A/G Plus beads (Santa Cruz Biotechnology) were added and incubated for 3 h. The beads were washed 4 times in RIPA buffer. Then the beads were resuspended in 1× sample buffer and boiled for 3 min. Protein extracts were quantitated and loaded on 8% to 12% sodium dodecyl sulfate polyacrylamide gel, electrophoresed, and transferred to a nitrocellulose membrane (Whatman). The membrane was incubated with primary antibody, washed, and incubated with horseradish peroxidase (HRP)–conjugated secondary antibody (Pierce). Detection was performed by using a chemiluminescent western detection kit (Cell Signaling). […]

Bacillus subtilis = test system: Bacillus subtilis; parameters: method as in PMID 9461679, PMID 8657743, PMID 12521264; conditions: cited from earlier work
Staphylococcus aureus = test system: Staphylococcus aureus; parameters: method as in PMID 9461679, PMID 8657743, PMID 12521264; conditions: cited from earlier work
MM.1R cells = assay: MTT assay, Dex with or without 6-OAP; assay type: cell-based, human; conditions: Dex 1 to 2 µM alone, 48 h, MTT
Procedure: U266, RPMI 8226 cells (1×10^4), primary CD138+ cells, PBMCs (5×10^4), and BMSCs (1×10^4) were cultured in 96-well dishes and incubated without or with 6-OAP at indicated concentration for 48 h. MM.1S and MM.1R cells (2×10^4) were seeded into 96-well dishes and pre-cultured for 24 h, then treated with 6-OAP for 48 h. Cell proliferation was determined by MTT assay. Cell viability was estimated by trypan blue dye exclusion.
Figure 4 6-OAP enhances cytotoxicity of Dox, Dex and BOR to MM cells. (A through C) MM.1S cells were treated for 48 h with Dox (A), Dex (B) or BOR (C) in the presence or absence of 6-OAP at 5 µM. MTT assay was used to test the proliferation of MM.1S cells. (D) MM.1R cells were treated for 48 h with Dex in the presence or absence of 6-OAP at 7.5 µM. MTT assay was used to test the proliferation of MM.1R cells. *p<.001,** p<.05. (E) MM.1S cells were cultured with control media (con), 6-OAP (O, 5 µM), BOR (B, 3 nM), or 6-OAP (5 µM) plus BOR (3 nM) (OB) for indicated time points. Cells were then lysed and subjected to Western blotting using indicated antibodies. CF, cleavage fragment.

CC(C)C[C@H](NC(=O)[C@H](Cc1ccccc1)NC(=O)c1cnccn1)B(O)O [BOR, bortezomib, reference compound]
6-OAP-induced pERK1/2 upregulation (pERK1/2): dramatically inhibited 6-OAP-induced pERK1/2 upregulation

CC(C)C(=O)OC1C2C(CC(C)C3C=CC(=O)C31C)OC(=O)C2C (stereo not drawn) [6-O-isobutyroylplenolin]
antibacterial activity (Bacillus subtilis): exhibit antibacterial activity | antibacterial activity (Staphylococcus aureus): exhibit antibacterial activity

C=C(C)C(=O)OC1C2C(CC(C)C3C=CC(=O)C31C)OC(=O)C2C (stereo not drawn) [6-O-methylacrylylplenolin]
antibacterial activity (Bacillus subtilis): exhibit antibacterial activity | antibacterial activity (Staphylococcus aureus): exhibit antibacterial activity

C[C@@H]1C[C@H]2[C@@H]3CCC4=CC(=O)C=C[C@]4(C)[C@@]3(F)[C@@H](O)C[C@]2(C)[C@@]1(O)C(=O)CO [Dex, Dexamethasone, reference compound]
inhibition of cell proliferation (MM.1R cells): slight inhibition rate
